Experimental data published in patent publication US11124541B2, “Chimeric melanocortin ligands and methods of use thereof” (REGENTS OF THE UNIVERSITY OF MINNESOTA, priority 2016, dated 2021).
“Also recorded” adds a separate entry of the source. Non-standard residues stand in square brackets, D forms with d. Residues, ends and D or L forms follow the SMILES beside them. Dap = NC[C@H](N)C(=O)O

How the values were obtained:
mMC3R = mMC3R (Mus musculus, UniProt P33033); experiment: cAMP AlphaScreen agonist assay, HEK293 cells stably expressing mouse MC3R; conditions: for mMC3R percent maximal stimulatory response at 100 μM: no EC50 determinable, relative to NDP-MSH; for agonist activity/efficacy at mMC3R (in words): concentrations up to 100 μM; for EC50: read-out: mMC3R EC50, agonist, cAMP
Chain of mMC3R (P33033 whole entry): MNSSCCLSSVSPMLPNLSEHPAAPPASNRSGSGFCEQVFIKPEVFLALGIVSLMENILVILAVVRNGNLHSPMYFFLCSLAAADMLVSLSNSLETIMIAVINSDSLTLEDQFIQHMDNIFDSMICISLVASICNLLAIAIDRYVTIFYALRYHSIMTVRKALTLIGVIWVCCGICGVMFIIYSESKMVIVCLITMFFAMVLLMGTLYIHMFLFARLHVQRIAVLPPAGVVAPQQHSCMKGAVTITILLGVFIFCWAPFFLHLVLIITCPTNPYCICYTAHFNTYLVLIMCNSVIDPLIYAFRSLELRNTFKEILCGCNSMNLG

mMC4R = mMC4R (Mus musculus, UniProt P56450); experiment: cAMP AlphaScreen agonist assay, HEK293 cells stably expressing mouse MC4R; conditions: for selectivity for the mMC4R over the mMC3R: agonist potency; for agonist activity/efficacy at mMC4R (in words): concentrations up to 100 μM; for EC50: read-out: mMC4R EC50, agonist, cAMP; for mMC4R percent maximal stimulatory response at 100 μM: no EC50 determinable, relative to NDP-MSH
Chain of mMC4R (P56450 whole entry): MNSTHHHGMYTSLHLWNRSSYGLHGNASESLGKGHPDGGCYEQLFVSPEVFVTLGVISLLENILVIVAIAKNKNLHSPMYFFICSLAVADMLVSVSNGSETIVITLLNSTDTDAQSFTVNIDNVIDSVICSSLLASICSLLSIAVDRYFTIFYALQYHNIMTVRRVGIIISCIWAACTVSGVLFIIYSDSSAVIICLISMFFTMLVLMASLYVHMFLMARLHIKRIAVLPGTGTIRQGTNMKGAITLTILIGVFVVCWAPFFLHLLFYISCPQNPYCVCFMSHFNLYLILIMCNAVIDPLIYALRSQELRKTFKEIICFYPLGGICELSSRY

mMC5R = mMC5R (Mus musculus, UniProt P41149); experiment: cAMP AlphaScreen agonist assay, HEK293 cells stably expressing mouse MC5R; conditions: for EC50: read-out: mMC5R EC50, agonist, cAMP; for agonist activity/efficacy at mMC5R (in words): concentrations up to 100 μM
Chain of mMC5R (P41149 whole entry): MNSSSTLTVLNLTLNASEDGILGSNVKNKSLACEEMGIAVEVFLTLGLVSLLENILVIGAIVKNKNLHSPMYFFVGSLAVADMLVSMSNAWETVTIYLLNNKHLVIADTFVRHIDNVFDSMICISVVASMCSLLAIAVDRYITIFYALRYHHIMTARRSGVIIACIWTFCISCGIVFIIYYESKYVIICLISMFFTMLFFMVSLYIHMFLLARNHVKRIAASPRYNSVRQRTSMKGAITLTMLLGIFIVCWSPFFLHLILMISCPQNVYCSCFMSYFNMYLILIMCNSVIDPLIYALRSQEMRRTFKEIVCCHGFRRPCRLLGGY

mMC1R = mMC1R (Mus musculus, UniProt Q01727); experiment: cAMP AlphaScreen agonist assay, HEK293 cells stably expressing mouse MC1R; conditions: for agonist activity/efficacy at mMC1R (in words): concentrations up to 100 μM; for EC50: read-out: mMC1R EC50, agonist, cAMP
Chain of mMC1R (Q01727 whole entry): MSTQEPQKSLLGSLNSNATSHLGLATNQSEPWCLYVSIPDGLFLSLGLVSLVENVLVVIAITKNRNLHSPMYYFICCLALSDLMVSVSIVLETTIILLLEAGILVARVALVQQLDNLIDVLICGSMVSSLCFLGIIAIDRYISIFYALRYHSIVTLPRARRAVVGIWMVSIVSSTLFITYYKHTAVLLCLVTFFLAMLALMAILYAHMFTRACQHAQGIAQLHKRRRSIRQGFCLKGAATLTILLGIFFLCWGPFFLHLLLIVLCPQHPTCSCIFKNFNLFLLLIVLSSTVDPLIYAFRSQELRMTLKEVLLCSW

Row | SMILES | agonist activity/efficacy at mMC3R (in words) (mMC3R) | EC50 (mMC5R) | EC50 (mMC1R) | EC50 (mMC3R) | agonist activity/efficacy at mMC4R (in words) (mMC4R) | EC50 (mMC4R) | decreased agonist potency at mMC1R relative to MDE5-149-2c (mMC1R) | other results
1 | C[C@@H]1NC(=O)[C@H](CC(N)=O)NC(=O)[C@H](Cc2c[nH]c3ccccc23)NC(=O)[C@H](CCCNC(=N)N)NC(=O)[C@@H](Cc2ccccc2)NC(=O)[C@@H]2CCCN2C(=O)[C@H]2CCCN2C1=O [MDE6-3-1c, c[Pro-DPhe-Arg-Trp-Asn-Ala-DPro]] (cyclo(P[dF]RWNA[dP])) | partially stimulated |  |  |  |  |  |  | mMC3R percent maximal stimulatory response at 100 μM (mMC3R): 55% @; selectivity for the mMC4R over the mMC3R (mMC4R): > 100 fold
2 | C[C@@H]1NC(=O)[C@H](CN)NC(=O)[C@H](Cc2c[nH]c3ccccc23)NC(=O)[C@H](CCCNC(=N)N)NC(=O)[C@@H](Cc2ccccc2)NC(=O)[C@@H]2CCCN2C(=O)[C@H]2CCCN2C(=O)[C@H](Cc2ccccc2)NC1=O [MDE5-151-1c, c[Pro-DPhe-Arg-Trp-Dap-Ala-Phe-DPro]] (cyclo(P[dF]RW[Dap]AF[dP])) | partial agonist | 46 ± 6 nM | 190 nM | 3000 nM | full agonist | 100 nM |  | agonist activity/efficacy at mMC1R (in words) (mMC1R): partial agonist
3 | N=C(N)NCCC[C@@H]1NC(=O)[C@@H](Cc2ccccc2)NC(=O)[C@@H]2CCCN2C(=O)[C@H]2CCCN2C(=O)[C@H](CN)NC(=O)[C@H](Cc2c[nH]c3ccccc23)NC1=O [MDE6-12-1c, c[Pro-DPhe-Arg-Trp-Dap-DPro]] (cyclo(P[dF]RW[Dap][dP])) | no observable activity; also recorded: did not possess agonist activity; also recorded: no agonist activity |  | 110 nM |  | stimulated a fraction of the maximal NDP-MSH response; also recorded: partially stimulated |  |  | agonist activity/efficacy at mMC5R (in words) (mMC5R): no observable activity; also recorded: unable to stimulate; also recorded: no agonist activity; mMC1R partial agonist, percent maximal NDP stimulation (mMC1R; PA, relative to maximal NDP-MSH response): PA, 75%; selectivity for the mMC1R over the other receptors (mMC1R; over mMC3R, mMC4R, mMC5R): > 500 fold; mMC4R percent maximal stimulatory response at 100 μM (mMC4R): 35%
4 | C[C@@H]1NC(=O)[C@H](CC(N)=O)NC(=O)[C@H](Cc2c[nH]c3ccccc23)NC(=O)[C@H](CCCNC(=N)N)NC(=O)[C@@H](Cc2ccccc2)NC(=O)[C@@H]2CCCN2C(=O)[C@H]2CCCN2C(=O)[C@H](Cc2ccccc2)NC1=O [MDE5-149-1c, c[Pro-DPhe-Arg-Trp-Asn-Ala-Phe-DPro]] (cyclo(P[dF]RWNAF[dP])) | partially stimulated | 40 ± 10 nM | 400 ± 200 nM |  |  | 130 ± 70 nM | 1140 fold | decreased agonist potency at mMC5R relative to MDE5-149-2c (mMC5R): 90 fold; decreased agonist potency at mMC4R relative to MDE5-149-2c (mMC4R): 90 fold
5 | C[C@@H]1NC(=O)[C@H](CN)NC(=O)[C@H](Cc2c[nH]c3ccccc23)NC(=O)[C@H](CCCNC(=N)N)NC(=O)[C@@H](Cc2ccccc2)NC(=O)[C@@H]2CCCN2C(=O)[C@H]2CCCN2C1=O [MDE6-5-1c, c[Pro-DPhe-Arg-Trp-Dap-Ala-DPro]] (cyclo(P[dF]RW[Dap]A[dP])) | partially stimulated | 48 nM | 600 nM |  |  | 150 ± 10 nM |  | agonist activity/efficacy at mMC1R (in words) (mMC1R): full agonist
6 | N=C(N)NCCC[C@@H]1NC(=O)[C@@H](Cc2ccccc2)NC(=O)[C@H](Cc2c[nH]cn2)NC(=O)[C@@H]2CCCN2C(=O)[C@H]2CCCN2C(=O)[C@H](CN)NC(=O)[C@H](Cc2c[nH]c3ccccc23)NC1=O [MDE6-12-2c, c[Pro-His-DPhe-Arg-Trp-Dap-DPro]] (cyclo(PH[dF]RW[Dap][dP])) | partially stimulated |  |  |  |  |  |  | decreased agonist potency at mMC5R relative to MDE6-5-2c (mMC5R; relative to MDE6-5-2c): 1,100 fold; decreased agonist potency at mMC1R relative to MDE6-5-2c (mMC1R; relative to MDE6-5-2c): 418 fold; decreased agonist potency at mMC4R relative to MDE6-5-2c (mMC4R; relative to MDE6-5-2c): 593 fold
7 | C[C@@H]1NC(=O)[C@H](CC(N)=O)NC(=O)[C@H](Cc2c[nH]c3ccccc23)NC(=O)[C@H](CCCNC(=N)N)NC(=O)[C@@H](Cc2ccccc2)NC(=O)[C@H](Cc2c[nH]cn2)NC(=O)[C@@H]2CCCN2C(=O)[C@H]2CCCN2C1=O [MDE6-3-2c, c[Pro-His-DPhe-Arg-Trp-Asn-Ala-DPro]] (cyclo(PH[dF]RWNA[dP])) |  |  |  | 300 nM |  |  | 34 fold | decreased agonist potency at mMC5R relative to MDE5-149-2c (mMC5R): 5 fold; decreased agonist potency at mMC3R relative to MDE5-149-2c (mMC3R; relative to MDE5-149-2c): 9 fold; decreased agonist potency at mMC4R relative to MDE5-149-2c (mMC4R): 21 fold
8 | C[C@@H]1NC(=O)[C@H](CN)NC(=O)[C@H](Cc2c[nH]c3ccccc23)NC(=O)[C@H](CCCNC(=N)N)NC(=O)[C@@H](Cc2ccccc2)NC(=O)[C@H](Cc2c[nH]cn2)NC(=O)[C@@H]2CCCN2C(=O)[C@H]2CCCN2C(=O)[C@H](Cc2ccccc2)NC1=O [MDE5-151-2c, c[Pro-His-DPhe-Arg-Trp-Dap-Ala-Phe-DPro]] (cyclo(PH[dF]RW[Dap]AF[dP])) | full agonist | 18 ± 2 nM | 24 nM | 260 nM | partial agonist | 23 nM | 70 fold | agonist activity/efficacy at mMC1R (in words) (mMC1R): full agonist
9 | N=C(N)NCCC[C@@H]1NC(=O)[C@@H](Cc2ccccc2)NC(=O)[C@@H]2CCCN2C(=O)[C@H]2CCCN2C(=O)[C@H](Cc2c[nH]c3ccccc23)NC1=O [MDE5-147-1c, c[Pro-DPhe-Arg-Trp-DPro]] (cyclo(P[dF]RW[dP])) |  |  | 1800 nM |  | stimulated a fraction of the maximal NDP-MSH response |  |  | mMC5R percent maximal stimulatory response at 100 μM (mMC5R; 100 μM, no EC50 determinable, relative to NDP-MSH): 75% @
10 | C[C@@H]1NC(=O)[C@H](CC(N)=O)NC(=O)[C@H](Cc2c[nH]c3ccccc23)NC(=O)[C@H](CCCNC(=N)N)NC(=O)[C@@H](Cc2ccccc2)NC(=O)[C@H](Cc2cnc[nH]2)NC(=O)[C@@H]2CCCN2C(=O)[C@H]2CCCN2C(=O)[C@H](Cc2ccccc2)NC1=O [MDE5-149-2c, c[Pro-His-DPhe-Arg-Trp-Asn-Ala-Phe-DPro]] (cyclo(H[dF]RWNAF[dP]P)) |  | 0.45 nM | 0.35 nM | 32 nM |  | 1.4 nM |  | selectivity for the mMC4R over the mMC3R (mMC4R): 23 fold
11 | N=C(N)NCCC[C@@H]1NC(=O)[C@@H](Cc2ccccc2)NC(=O)[C@H](Cc2c[nH]cn2)NC(=O)[C@@H]2CCCN2C(=O)[C@H]2CCCN2C(=O)[C@H](CC(N)=O)NC(=O)[C@H](Cc2c[nH]c3ccccc23)NC1=O [MDE6-10-2c, c[Pro-His-DPhe-Arg-Trp-Asn-DPro]] (cyclo(PH[dF]RWN[dP])) |  |  |  | 510 nM |  |  | 143 fold | decreased agonist potency at mMC5R relative to MDE5-149-2c (mMC5R): 37 fold; decreased agonist potency at mMC4R relative to MDE5-149-2c (mMC4R): 121 fold
12 | N=C(N)NCCC[C@@H]1NC(=O)[C@@H](Cc2ccccc2)NC(=O)[C@@H]2CCCN2C(=O)[C@H]2CCCN2C(=O)[C@H](CC(N)=O)NC(=O)[C@H](Cc2c[nH]c3ccccc23)NC1=O [MDE6-10-1c, c[Pro-DPhe-Arg-Trp-Asn-DPro]] (cyclo(P[dF]RWN[dP])) | no agonist activity; also recorded: did not possess agonist activity |  | 40 nM |  |  | 1100 nM |  | agonist activity/efficacy at mMC5R (in words) (mMC5R): partially stimulated; selectivity for the mMC1R over the mMC3R (mMC1R; agonist potency): > 2500 fold; selectivity for the mMC1R over the mMC5R (mMC1R; agonist potency): > 1000 fold; increased agonist potency at mMC1R over MDE5-149-1c (mMC1R; increase over MDE5-149-1c): 10 fold; decreased potency at mMC4R relative to MDE5-149-1c (mMC4R; decrease relative to MDE5-149-1c): 8 fold
13 | N=C(N)NCCC[C@@H]1NC(=O)[C@@H](Cc2ccccc2)NC(=O)[C@H](Cc2c[nH]cn2)NC(=O)[C@@H]2CCCN2C(=O)[C@H]2CCCN2C(=O)[C@H](Cc2c[nH]c3ccccc23)NC1=O [MDE5-147-2c, c[Pro-His-DPhe-Arg-Trp-DPro]] (cyclo(PH[dF]RW[dP])) | partially stimulated | 6000 nM | 900 ± 200 nM |  | stimulated a fraction of the maximal NDP-MSH response |  |  | mMC3R percent maximal stimulatory response at 100 μM (mMC3R): 60% @; mMC3R percent maximal stimulatory response at 100 μM (mMC3R; listed as MDES-147-2c): 60%; mMC4R percent maximal stimulatory response at 100 μM (mMC4R): 65% @; mMC4R percent maximal stimulatory response at 100 μM (mMC4R; listed as MDES-147-2c): 65%
